Measured values reported in patent US8067243B2 (priority 2008, dated 2011).
Where two headings read alike, the source gives them in different places.

Legend:
[1] = drug screen, cited from earlier work
[2] = in vivo, cited from earlier work
[3] = human, in vivo
[4] = in vivo; cited from earlier work

SMILES: CC(N)Cc1ccccc1 (centres unmarked) [Amphetamine]
- Retention Time [1]: 1 to 2 days

SMILES: COc1ccc2c3c1O[C@H]1[C@@H](O)C=C[C@H]4[C@@H](C2)N(C)CC[C@@]341 [Codeine]
- time to peak plasma concentration ([2]; po): one
- Result (urine concentration) [3]: 327 ng/mL

SMILES: CCCC(C)C1(CC)C(=O)NC(=O)NC1=O (centres unmarked) [Pentobarbital]
- Retention Time [1]: 0.042 to 1 days

SMILES: CCOC(=O)C1(c2ccccc2)CCN(C)CC1 [Meperidine]
- plasma half-life [2]: 3 h
- Retention Time [4]: 1 to 2 days

SMILES: CCC1(CCC(C)C)C(=O)NC(=O)NC1=O [Amobarbital]
- Retention Time [1]: 1 to 7 days

SMILES: C=CCC1(C(C)C)C(=O)NC(=O)NC1=O [Aprobarbital]
- Retention Time [1]: 1 to 7 days

SMILES: CN1CC[C@]23c4c5ccc(O)c4O[C@H]2[C@@H](O)C=C[C@H]3[C@H]1C5 [Morphine]
- dose excreted in urine as morphine-3-glucuronide [2]: 70%
- Result (urine concentration) [3]: 104 ng/mL

SMILES: CCO [Ethanol]
- Retention Time [1]: 0.083 to 0.583 days

SMILES: CC(=O)Oc1ccc2c3c1O[C@H]1[C@@H](OC(C)=O)C=C[C@H]4[C@@H](C2)N(C)CC[C@@]341 [heroin, diacetyl morphine]
- heroin dose excreted as morphine-3-glucuronide [2]: Approximately 42%

SMILES: C=CCC1(CC(C)C)C(=O)NC(=O)NC1=O [Butalbital]
- Retention Time [1]: 0.042 to 2 days

SMILES: c1ccc(C2(N3CCCCC3)CCCCC2)cc1 [Phencyclidine]
- Retention Time, Chronic Use ([1]; chronic use): up to 30 days
- Retention Time [1]: 8 days

SMILES: COc1ccc2c3c1O[C@H]1C(=O)CC[C@@]4(O)[C@@H](C2)N(C)CC[C@]314 [Oxycodone]
- oral dose eliminated in urine as oxymorphone ([2]; po): about 14%
- oral dose eliminated in urine as total oxycodone ([2]; po): approximately 60%
- Result (urine concentration) [3]: 544 ng/mL
- Retention Time [4]: 1 to 3 days
- Retention Time (SR) [4]: (SR 2-4 days)
- detection of free drug in urine by LC/MS/MS after administration [4]: up to 3 days
- detection of free drug in urine by LC/MS/MS after slow-release dosage form [4]: up to 4 days

SMILES: CN1[C@H]2CC[C@@H]1[C@@H](C(=O)O)[C@@H](OC(=O)c1ccccc1)C2 [Cocaine metabolite]
- Retention Time [1]: 1 to 2 days

SMILES: CCC(C)C1(CC)C(=O)NC(=O)NC1=O (centres unmarked) [Butabarbital]
- Retention Time [1]: 1 to 7 days

SMILES: C=CCC1(C(C)CCC)C(=O)NC(=O)NC1=O (centres unmarked) [Secobarbital]
- Retention Time [1]: 0.042 to 1 days

SMILES: CCOC(=O)C1(c2ccccc2)CCNCC1 [Normeperidine]
- plasma half-life [2]: 20 h

SMILES: COc1ccc2c3c1O[C@H]1C(=O)CC[C@H]4[C@@H](C2)N(C)CC[C@]314 [Hydrocodone]
- Result (urine concentration) [3]: 864 ng/mL
- Retention Time [4]: 1 to 3 days
- detection of free drug in urine by LC/MS/MS after administration [4]: 3 days

SMILES: CN1CC[C@]23c4c5ccc(O)c4O[C@H]2C(=O)CC[C@@]3(O)[C@H]1C5 [Oxymorphone]
- dose excreted in urine [2]: About 49%
- Result (urine concentration) [3]: 223 ng/mL
- Retention Time [4]: 1 to 3 days
- Retention Time (SR) [4]: (SR 2-4 days)
- detection of free drug in urine by LC/MS/MS after administration [4]: up to 3 days
- detection of free drug in urine by LC/MS/MS after slow-release dosage form [4]: up to 4 days
